Source: ChEMBL document CHEMBL1201862, “PubChem BioAssay data set” (2004)
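Interpolation was linear, between the two tested concentrations surrounding the appropriate level; five concentrations were tested over 48 hours in 96-well plates. GI50: concentration for 50% inhibition of growth.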 Active and inactive are the calls of the source. No stated cut-off is given here; in the data, active = GI50 up to about 1.1 µM and inactive = higher.

Legend:
Assay in all cases: growth of human tumour cells (NCI), 48 h
DMS-273 = tested on: DMS-273
CCRF-CEM = tested on: CCRF-CEM
SF-295 = tested on: SF-295
CAKI-1 = tested on: CAKI-1
OVCAR-4 = tested on: OVCAR-4
SNB-19 = tested on: SNB-19
A498 = tested on: A498
UACC-257 = tested on: UACC-257
NCI-H522 = tested on: NCI-H522
SW-620 = tested on: SW-620
ACHN = tested on: ACHN
SR = tested on: SR
NCI-H460 = tested on: NCI-H460
RXF 631 = tested on: RXF 631
HL-60 = tested on: HL-60
SK-MEL-2 = tested on: SK-MEL-2
TK-10 = tested on: TK-10
M14 = tested on: M14
MOLT-4 = tested on: MOLT-4
SF-268 = tested on: SF-268
EKVX = tested on: EKVX
OVCAR-5 = tested on: OVCAR-5
SNB-78 = tested on: SNB-78
IGROV-1 = tested on: IGROV-1
HT-29 = tested on: HT-29
SF-539 = tested on: SF-539
Malme-3M = tested on: Malme-3M
U-251 = tested on: U-251
LOX IMVI = tested on: LOX IMVI
UO-31 = tested on: UO-31
K562 = tested on: K562
NCI-H23 = tested on: NCI-H23
KM12 = tested on: KM12
DLD-1 = tested on: DLD-1
RXF 393 = tested on: RXF 393
SN12C = tested on: SN12C
DMS-114 = tested on: DMS-114
KM-20L2 = tested on: KM-20L2
M19-MEL = tested on: M19-MEL
786-0 = tested on: 786-0
SK-OV-3 = tested on: SK-OV-3
HOP-62 = tested on: HOP-62
SK-MEL-28 = tested on: SK-MEL-28
HOP-92 = tested on: HOP-92
LXFL 529 = tested on: LXFL 529
XF498 = tested on: XF498
OVCAR-8 = tested on: OVCAR-8
SK-MEL-5 = tested on: SK-MEL-5
A549 = tested on: A549
UACC-62 = tested on: UACC-62
NCI-H226 = tested on: NCI-H226
HOP-18 = tested on: HOP-18
HCT-15 = tested on: HCT-15
OVCAR-3 = tested on: OVCAR-3
HCT-116 = tested on: HCT-116
HCC 2998 = tested on: HCC 2998
RPMI-8226 = tested on: RPMI-8226
COLO 205 = tested on: COLO 205
SNB-75 = tested on: SNB-75

For `O=c1[nH]c(=O)n(C2CC(O)C(CO)O2)cc1/C=C/Br` (configuration not stated), the GI50 (DMS-273) was > 100 µM (inactive), the GI50 (CCRF-CEM) was > 100 µM (inactive) and the GI50 (SF-295) was > 100 µM (inactive). For the same compound, the GI50 (CAKI-1) was > 100 µM (inactive), the GI50 (OVCAR-4) was > 100 µM (inactive) and the GI50 (SNB-19) was > 100 µM (inactive). The GI50 (A498) was > 100 µM (inactive), the GI50 (UACC-257) was > 100 µM (inactive) and the GI50 (NCI-H522) was > 100 µM (inactive). The GI50 (SW-620) was > 100 µM (inactive), the GI50 (ACHN) was > 100 µM (inactive) and the GI50 (SR) was > 100 µM (inactive). The GI50 (NCI-H460) was > 100 µM (inactive), the GI50 (RXF 631) was > 100 µM (inactive) and the GI50 (HL-60) was > 100 µM (inactive). For the same compound, the GI50 (SK-MEL-2) was > 100 µM (inactive), the GI50 (TK-10) was > 100 µM (inactive) and the GI50 (M14) was > 100 µM (inactive). The GI50 (MOLT-4) was > 100 µM (inactive), the GI50 (SF-268) was > 100 µM (inactive) and the GI50 (EKVX) was > 100 µM (inactive). The GI50 (OVCAR-5) was > 100 µM (inactive), the GI50 (SNB-78) was > 100 µM (inactive) and the GI50 (IGROV-1) was > 100 µM (inactive). For the same compound, the GI50 (HT-29) was > 100 µM (inactive), the GI50 (SF-539) was > 100 µM (inactive) and the GI50 (Malme-3M) was > 100 µM (inactive). The GI50 (U-251) was > 100 µM (inactive), the GI50 (LOX IMVI) was > 100 µM (inactive) and the GI50 (UO-31) was > 100 µM (inactive). The GI50 (K562) was > 100 µM (inactive), the GI50 (NCI-H23) was > 100 µM (inactive) and the GI50 (KM12) was > 100 µM (inactive). The GI50 (DLD-1) was > 100 µM (inactive), the GI50 (RXF 393) was > 100 µM (inactive) and the GI50 (SN12C) was > 100 µM (inactive). The GI50 (DMS-114) was > 100 µM (inactive), the GI50 (KM-20L2) was > 100 µM (inactive) and the GI50 (M19-MEL) was > 100 µM (inactive). The GI50 (786-0) was > 100 µM (inactive), the GI50 (SK-OV-3) was > 100 µM (inactive) and the GI50 (HOP-62) was > 100 µM (inactive). For the same compound, the GI50 (SK-MEL-28) was > 100 µM (inactive), the GI50 (HOP-92) was > 100 µM (inactive) and the GI50 (LXFL 529) was > 100 µM (inactive). The GI50 (XF498) was > 100 µM (inactive), the GI50 (OVCAR-8) was > 100 µM (inactive) and the GI50 (SK-MEL-5) was > 100 µM (inactive). For the same compound, the GI50 (A549) was > 100 µM (inactive), the GI50 (UACC-62) was > 100 µM (inactive) and the GI50 (NCI-H226) was > 100 µM (inactive).
With `C[N+]1(C)CCCC1C(=O)[O-]` (configuration not stated) the GI50 (DMS-273) was > 100 µM (inactive), the GI50 (HOP-18) was > 100 µM (inactive) and the GI50 (CCRF-CEM) was > 100 µM (inactive). For the same compound, the GI50 (SF-295) was > 100 µM (inactive), the GI50 (OVCAR-4) was > 100 µM (inactive) and the GI50 (SNB-19) was > 100 µM (inactive). For the same compound, the GI50 (A498) was > 100 µM (inactive), the GI50 (UACC-257) was > 100 µM (inactive) and the GI50 (NCI-H522) was > 100 µM (inactive). For the same compound, the GI50 (SW-620) was > 100 µM (inactive), the GI50 (ACHN) was > 100 µM (inactive) and the GI50 (SR) was > 100 µM (inactive). The GI50 (NCI-H460) was > 100 µM (inactive), the GI50 (HCT-15) was greater than 100 µM and the GI50 (HL-60) was > 100 µM (inactive). The GI50 (SK-MEL-2) was > 100 µM (inactive), the GI50 (TK-10) was > 100 µM (inactive) and the GI50 (OVCAR-3) was > 100 µM (inactive). For the same compound, the GI50 (M14) was > 100 µM (inactive), the GI50 (HCT-116) was > 100 µM (inactive) and the GI50 (MOLT-4) was > 100 µM (inactive). The GI50 (SF-268) was > 100 µM (inactive), the GI50 (EKVX) was > 100 µM (inactive) and the GI50 (SNB-78) was > 100 µM (inactive). For the same compound, the GI50 (IGROV-1) was > 100 µM (inactive), the GI50 (HT-29) was > 100 µM (inactive) and the GI50 (HCC 2998) was > 100 µM (inactive). The GI50 (SF-539) was > 100 µM (inactive), the GI50 (Malme-3M) was > 100 µM (inactive) and the GI50 (RPMI-8226) was > 100 µM (inactive). The GI50 (U-251) was > 100 µM (inactive), the GI50 (LOX IMVI) was > 100 µM (inactive) and the GI50 (UO-31) was > 100 µM (inactive). For the same compound, the GI50 (K562) was > 100 µM (inactive), the GI50 (NCI-H23) was > 100 µM (inactive) and the GI50 (KM12) was > 100 µM (inactive). The GI50 (DLD-1) was > 100 µM (inactive), the GI50 (RXF 393) was > 100 µM (inactive) and the GI50 (SN12C) was > 100 µM (inactive). The GI50 (DMS-114) was > 100 µM (inactive), the GI50 (KM-20L2) was > 100 µM (inactive) and the GI50 (M19-MEL) was > 100 µM (inactive). The GI50 (786-0) was > 100 µM (inactive), the GI50 (SK-OV-3) was > 100 µM (inactive) and the GI50 (HOP-62) was > 100 µM (inactive). For the same compound, the GI50 (SK-MEL-28) was > 100 µM (inactive), the GI50 (HOP-92) was > 100 µM (inactive) and the GI50 (LXFL 529) was > 100 µM (inactive). For the same compound, the GI50 (XF498) was > 100 µM (inactive), the GI50 (OVCAR-8) was > 100 µM (inactive) and the GI50 (A549) was > 100 µM (inactive). The GI50 (COLO 205) was > 100 µM (inactive), the GI50 (SNB-75) was > 100 µM (inactive) and the GI50 (UACC-62) was > 100 µM (inactive). The GI50 (NCI-H226) was > 100 µM (inactive).
`N#CC1CC2(CCN1C(=O)c1ccccc1)OCCO2` (configuration not stated) was tested, and the GI50 (DMS-273) was > 100 µM (inactive), the GI50 (HOP-18) was > 100 µM (inactive) and the GI50 (CCRF-CEM) was > 100 µM (inactive). The GI50 (SF-295) was > 100 µM (inactive), the GI50 (CAKI-1) was > 100 µM (inactive) and the GI50 (OVCAR-4) was > 100 µM (inactive). The GI50 (SNB-19) was > 100 µM (inactive), the GI50 (A498) was > 100 µM (inactive) and the GI50 (UACC-257) was > 100 µM (inactive). The GI50 (NCI-H522) was 0.308 µM (active), the GI50 (SW-620) was > 100 µM (inactive) and the GI50 (ACHN) was > 100 µM (inactive). The GI50 (SR) was > 100 µM (inactive), the GI50 (NCI-H460) was > 100 µM (inactive) and the GI50 (HCT-15) was greater than 100 µM. For the same compound, the GI50 (HL-60) was > 100 µM (inactive), the GI50 (SK-MEL-2) was > 100 µM (inactive) and the GI50 (TK-10) was > 100 µM (inactive). The GI50 (OVCAR-3) was > 100 µM (inactive), the GI50 (M14) was > 100 µM (inactive) and the GI50 (HCT-116) was > 100 µM (inactive). For the same compound, the GI50 (MOLT-4) was > 100 µM (inactive), the GI50 (SF-268) was > 100 µM (inactive) and the GI50 (EKVX) was > 100 µM (inactive). For the same compound, the GI50 (OVCAR-5) was > 100 µM (inactive), the GI50 (SNB-78) was > 100 µM (inactive) and the GI50 (IGROV-1) was > 100 µM (inactive). For the same compound, the GI50 (HT-29) was > 100 µM (inactive), the GI50 (HCC 2998) was > 100 µM (inactive) and the GI50 (SF-539) was > 100 µM (inactive). For the same compound, the GI50 (Malme-3M) was > 100 µM (inactive), the GI50 (RPMI-8226) was > 100 µM (inactive) and the GI50 (U-251) was > 100 µM (inactive). For the same compound, the GI50 (UO-31) was > 100 µM (inactive), the GI50 (K562) was > 100 µM (inactive) and the GI50 (NCI-H23) was > 100 µM (inactive). The GI50 (KM12) was > 100 µM (inactive), the GI50 (DLD-1) was > 100 µM (inactive) and the GI50 (RXF 393) was > 100 µM (inactive). The GI50 (SN12C) was > 100 µM (inactive), the GI50 (DMS-114) was > 100 µM (inactive) and the GI50 (KM-20L2) was > 100 µM (inactive). For the same compound, the GI50 (M19-MEL) was > 100 µM (inactive), the GI50 (786-0) was > 100 µM (inactive) and the GI50 (SK-OV-3) was > 100 µM (inactive). For the same compound, the GI50 (HOP-62) was > 100 µM (inactive), the GI50 (HOP-92) was > 100 µM (inactive) and the GI50 (LXFL 529) was > 100 µM (inactive). The GI50 (XF498) was > 100 µM (inactive), the GI50 (OVCAR-8) was > 100 µM (inactive) and the GI50 (SK-MEL-5) was > 100 µM (inactive). The GI50 (A549) was > 100 µM (inactive), the GI50 (COLO 205) was > 100 µM (inactive) and the GI50 (SNB-75) was > 100 µM (inactive). For the same compound, the GI50 (UACC-62) was > 100 µM (inactive) and the GI50 (NCI-H226) was > 100 µM (inactive).
